# Patent publication US10987669B2, “Apparatus and method for detection of tumour cells and circulating tumour cells” (MEDCOM ADVANCE, S.A., priority 2016, dated 2021)
# What was measured:
# Assay type in all cases: cell-based
# [1] = system: co-cultured MCF7 (Qdot685 labelled) cells with MCF12A (Qdot625 labelled) cells; assay: 2-NBD glucose uptake measurements in co-cultured cells; details: 300 μM 2-NBDG, 5 min, hyperoxic environment, co-culture
# Protocol: To successfully identify different cell types in a cell mixture, previously functionalized Qdot 625 and 685 were used as the intracellular trackers for MCF12A and MCF7 cells, respectively. 50,000 cells/wells of each type were cultured separately onto glass cover slips inside 12-well plates and left growing for 48 h, at 5% CO2 and 37° C. Then, cells were washed with pre-warmed 1×PBS for 1 minute and 100 nM of each Qdot@amino-PEG was added in the cell growth media, and waited for 1 hour. After the incubation, cells were washed 3 times with 1×PBS. MCF7 (Qdot685 labelled) cells were detached from the surface using Trypsin-EDTA solution 0.25% and re-cultured onto MCF12A (Qdot625 labelled) cells. […]
# Co-cultured MCF7 (Qdot685 labelled) cells with MCF12A (Qdot625 labelled) cells were exposed to 300 μM of 2-NBDG for 5 min, under the hyperoxic environment, determined by the previous optimizations. Afterwards, cells were fixed with 4% paraformaldehyde solution in 1×PBS for 20 min, and then washed 6 times with 1×PBS and mounted onto glass slides with Fluoromount G (Southern Biotech), for the fluorescence measurements.
# (§1) Fixed cells were imaged with fluorescence microscopy and then analysed using Image J. Epi-fluorescence microscope NIKON TE2000E equipped with the 465/495 excitation and 515/555 emission filters was used to collect the fluorescence of 2-NBDG. […]
# MCF7 and MCF12A cells = assay: On-line detection of cancer and healthy cells in the detection microfluidic chip; details: 150 μM 2-NBDG, 5 min, hyperoxic 1×PBS, cells in flow at 0.025 mL/h
# Description: A detection chip based on the hydrodynamic focusing technique was constructed to continuously detect hypermetabolic cancer cells by measuring single cell fluorescence. It consisted of three inlets, a main single channel and an outlet (FIG. 8a). All inlet channels converged in a single one of 75 μm-width, which was widen to 600 μm (detection region). The conformation of the inlet channels ensures the focus of cells into a line, which can be further detected one by one. Depth of the whole microfluidic chip was 75 μm.
# For the on-line detection of cancer and healthy cells, MCF12A and MCF7 cells were separately detached from culture flasks, centrifuged at 1,300 rpm for 5 min and resuspended in 1 mL of 1×PBS under hyperoxic conditions. As mentioned above, hyperoxia was achieved by bubbling oxygen into the PBS solution for 20 min. 2-NBDG was then added to achieve 150 μM as the final concentration and incubated with suspended cells for 5 min, as the optimal condition. Afterwards, incubation was stopped by adding 2-fold volume of pre-cooled 1×PBS and non-uptaken 2-NBDG was removed by centrifuging cells at 1,300 rpm for 5 min and suspending in 1×PBS. […] An epi-fluorescence microscope was used to collect the fluorescence of the 2-NBDG uptaken by single cells (both, MCF12A and MCF7). Data was analyzed with Image J software.
# [2] = system: MCF7 breast cancer cell line (compared with MCF12A healthy breast cells); assay: 2-NBD glucose uptake measurements on fixed cells; details: for Fluorescence intensity of 2-NBDG, cancer versus healthy cells: 300 μM 2-NBDG
# Protocol: MCF12A, a breast mammary epithelia-derived cell line, and MCF7 breast cancer cell line (American Type Culture Collection, ATCC, Manassas, Va., USA), were routinely cultured in DMEM/F-12 supplemented with 20 ng/mL of human epidermal growth factor, 100 ng/mL of cholera toxin, 0.01 mg/mL of bovine insulin, 500 ng/mL of hydrocortisone 95% and 5% donor horse serum; and in EMEM (Eagle's Minimum Essential Medium) supplemented with 10% fetal bovine serum, 0.01 mg/mL human recombinant insulin, 2 mM of L-glutamine and 1% Penicillin-Streptomycin, respectively. Each cell line was cultured in a humidified atmosphere with 5% CO2 at 37° C.
# To study the general uptake and retention of glucose, cells were exposed to 300 μM of 2-(N-(7-Nitrobenz-2-oxa-1,3-diazol-4-yl)Amino)-2-Deoxyglucose (2-NBDG) for different incubation times: 1, 5, 10, 20, 30, and 60 min. To achieve higher 2-NBDG accumulation inside MCF7 cells, cells were exposed to different conditions based on the concentrations of dissolved oxygen. The effects on oxygen availability were evaluated by exposing cells to the hyperoxic or hypoxic environment, created by bubbling 2-NBDG incubation media for 20 min with oxygen or nitrogen, respectively. Afterwards, cells were fixed with 4% paraformaldehyde solution in 1×PBS, for 20 min, and then washed 6 times with 1×PBS and mounted onto glass slides with Fluoromount G (Southern Biotech), for the fluorescence measurements.
# as §1
# 2-(N-(7-Nitrobenz-2-oxa-1,3-diazol-4-yl)Amino)-2-Deoxyglucose (2-NBDG) is chosen as the model metabolism indicator. […] The concentration of 2-NBDG was determined based on the gain of clear visibility on the fluorescence images. The fluorescence intensity was quantified using Image J. The same thresholds were set for fluorescence images of both healthy and cancer cells to remove the background noises. […]
smiles,measurement,setting,value
"O=[N+]([O-])c1ccc(N[C@H]2C(O)O[C@H](CO)[C@@H](O)[C@@H]2O)c2nonc12 (some centres unmarked) [2-NBDG, 2-(N-(7-Nitrobenz-2-oxa-1,3-diazol-4-yl)Amino)-2-Deoxyglucose]","Fluorescence intensity of 2-NBDG, cancer cell versus surrounded healthy cells",[1],greater fluorescence intensity
same,"Single cell fluorescence intensity of 2-NBDG, cancer versus healthy cells",MCF7 and MCF12A cells,higher fluorescence intensity compared to the healthy ones
same,"Fluorescence intensity of 2-NBDG, cancer versus healthy cells","[2]; 5 min incubation, MCF7 vs MCF12A cultured separately",higher fluorescence compared to healthy cells
same,"Fluorescence intensity of 2-NBDG, cancer versus healthy cells","[2]; incubation longer than 5 min (up to 60 min), MCF7 vs MCF12A",fluorescence from healthy cells overtakes the cancer cells
same,Fluorescence intensity gap between cancer and healthy cells,"[2]; 5 min incubation, hyperoxia compared to control and hypoxia environments",further enlarged
